Results published in patent US4218474A, “Derivatives of L- and DL-4-hydroxyphenylglycine” (Pfizer Inc., priority 1977, dated 1980).
Structures can show the parent of a compound that is named as a salt. Square brackets hold non-standard residues; d marks the D form. Peptide text beside a SMILES is read from it. Hpg = N[C@H](C(=O)O)c1ccc(O)cc1

How the values were obtained:
[1] = system: pyruvate oxidation by diaphragm tissue from fat-fed rats; assay: Stimulation of pyruvate oxidation by diaphragm tissue from fat-fed rats in vitro; format: cell-based; conditions: Rattus norvegicus, concentration of 0.5 mmoles, L-compounds
Experimental: Representative compounds of the formula (II) have been tested for their ability to increase the oxidation of glucose and/or pyruvate as follows: Diaphragm tissue is obtained from rats fed on a high fat diet similar to `Diet B` described by Zaragoza and Felber [Horm. Metab. Res., 2, 323 (1970)]. Pyruvate oxidation by such tissue is assessed by measurement of the rate of incorporation of carbon-14 from carbon-14-labelled pyruvate into carbon dioxide in vitro, as described by Bringolf [Eur. J. Biochem., 26, 360 (1972)]. The rate of pyruvate oxidation is depressed by 50%-75% compared with that by diaphragm tissue from rats fed on a normal diet. When the L- and DL-compounds of the formula (II) are added to the medium, they are found to stimulate pyruvate oxidation by diaphragm tissue from fat-fed rats in a dose dependent manner.

[2] = system: pyruvate dehydrogenase enzyme; assay: Increase in proportion of active form of pyruvate dehydrogenase (PDHa/PDHt) in hearts of fat-fed rats in vivo; conditions: 0.6 mg./kg. oral or sub-cutaneous; rat hearts removed after 11/2 hours; L-compounds; placebo ratio 0.12-0.21
Experimental: The ability of compounds of formula (II) to increase the proportion of the active form of the pyruvate dehydrogenase enzyme has been measured in the following test: Rats fed on a high fat diet as in the previous test, are treated either with placebo or with the compound of formula (II) by subcutaneous or intravenous injection or by oral administration. After 11/2 hours the rat hearts are removed and homogenized under conditions which minimize changes in the proportion of the pyruvate dehydrogenase enzyme […] which is present in the active form, as described by Whitehouse and Randle [Biochem. J., 134, 651 (1973)]. The total amount of the enzyme present (PDHt) and the amount which is present in the active form (PDHa) are assessed by a method similar to that described by Taylor et al. [J. Biol. Chem., 248, 73 (1973)]. The fat-feeding process is found to depress the ratio […] from a normal value of about 0.7 to a value in the range from 0.05 to 0.2. Treatment of fat-fed rats with L- and DL-compounds of formula (II) either parenterally or orally, increases this ratio in a dose-dependent manner. The increase in the […] ratio affected by the L-compounds of formula (II) at a dosage level of 0.6 mg./kg. via the oral or sub-cutaneous route is shown in the following Table: […]

Row | SMILES | activation at 500 µM [1] | PDHa/PDHt ratio, compound [2]
1 | Cl.N[C@H](C(=O)NCc1ccc(O)cc1)c1ccc(O)cc1 [Example 1, (L)-N-(4-Hydroxybenzyl)-2-amino-2-(4-Hydroxyphenyl)acetamide hydrochloride] | 72% | 1.00
2 | CC(C)NC(=O)[C@@H](N)c1ccc(O)cc1 [Example 2, L-N-isopropyl-2-amino-2-(4-hydroxyphenyl)acetamide] | 108% | 0.65
3 | CC(C)(C)NC(=O)[C@@H](N)c1ccc(O)cc1 [Example 3] | 15% | 0.56
4 | C#CCNC(=O)[C@@H](N)c1ccc(O)cc1 [Example 4, L-N-propargyl-2-amino-2-(4-hydroxyphenyl)acetamide] | 82% | 0.73
5 | N[C@H](C(=O)NC1CCCC1)c1ccc(O)cc1 [Example 5, L-N-cyclopentyl-2-amino-2-(4-hydroxyphenyl)acetamide] | 23% | 0.88
6 | CCN(CC)CCNC(=O)[C@@H](N)c1ccc(O)cc1 [Example 6, L-N-(2-diethylamino)ethyl-2-amino-2-(4-hydroxyphenyl)acetamide] | 38% | 0.78
7 | CNC(=O)[C@@H](N)c1ccc(O)cc1.Cl [Example 13, (L)-N-methyl-2-Amino-2-(4-hydroxyphenyl)acetamide hydrochloride] | 45% | 0.55
8 | COCCNC(=O)[C@@H](N)c1ccc(O)cc1 [Example 14, L-N-(2-methoxyethyl)-2-amino-2-(4-hydroxyphenyl)acetamide] | 76% | 0.88
9 | COc1ccccc1OCC(O)CNC(=O)[C@@H](N)c1ccc(O)cc1 (stereo partly shown) [Example 15] | 55% | 0.25
10 | Cl.N[C@H](C(=O)N[C@@H](Cc1ccc(O)cc1)C(=O)O)c1ccc(O)cc1 [Example 16, N-[(L)-2-(4-Hydroxyphenyl)glycyl]-(L)-tyrosine hydrochloride] (H-[Hpg]-Tyr-OH) | 67% | 0.31
11 | N[C@H](C(=O)NCC(=O)O)c1ccc(O)cc1 [Example 17, N-[(L)-2-(4-hydroxyphenyl)glycyl]-glycine hydrochloride dioxanate] (H-[Hpg]-Gly-OH) | 41% | 0.31
